The values below come from patent US20150273088A1 (Board of Regents, The University of Texas System, priority 2014, published 2015).

Assay [1] deals with PDAC cells Panc1 and MiaPaca2. The experiment in a line: Sensitivity to H2O2, viability by Alamar Blue. Type of assay: cell-based. From the text:
Cell culture, transfection, and generation of stable cell lines. HT1080, HEK293T, Panc1, and MIA PaCa-2 cells were obtained from the American Type Culture Collection (ATCC). Normal human astrocytes (NHA) immortalized with E6/E7/hTERT were a kind gift from Dr. Russell O. Pieper (University of California, San Francisco). All cells tested negative for mycoplasma infection. HT1080 cells were authenticated by genotyping for IDH1 and were confirmed to harbor a heterozygous IDH1 R132C mutation by Sanger sequencing of genomic DNA products. The remaining cell lines were not further authenticated. HEK293T, NHA, PANC-1, and MIA Paca-2 cells were maintained with complete DMEM containing 10% fetal bovine serum (FBS) and 1% penicillin/streptomycin (P/S). HT1080 cells were maintained in αMEM containing 10% FBS and 1% P/S. Glutamine-free DMEM (Life Technologies) was supplemented with 10% FBS and 1% P/S and spiked with varying amounts of L-glutamine (Cellgro) for glutamine growth curves.
For orientation: The colour change of resazurin is a common sign of viable cells or microbes.

Assay [2] relates to NHA cells ectopically expressing R132H IDH1. The experiment in a line: GC-MS quantification of 2HG and upstream metabolites in NHA cells expressing IDH1 R132H. Type of assay: cell-based, human. The following applies: 48 hours. How it is done: GC-MS analysis. Metabolite extraction from cultured cells was performed as described previously by Figueroa et al. (2010). Briefly, cells were rinsed in ice cold PBS and rapidly quenched with 80% methanol spiked with 3-hydroxy-1,5-pentanedioic-2,2,3,4,4-d5 acid (CDN Isotopes, Quebec Canada) as an internal standard. Extracts were then incubated at −80° C. for 20 minutes, sonicated on ice, centrifuged at 14,000×g for 20 minutes at 4° C. to clear precipitate proteins, and supernatants transferred to vials for drying under N2. Derivatizing reagent (MSTFA (N-methyl-N-(trimethylsilyl)trifluoroacetamide):pyridine:acetonitrile 1:1:2) was added to the vials, which were then heated at 70° C. for 15 minutes.
Derivatized samples were analyzed on an Agilent 7890A gas chromatograph interfaced to an Agilent 5975C mass spectrometer. The GC column used for the study was a HP-5MS (30 m, 0.25 mm i.d., 0.25 μm film coating). A linear temperature gradient was used. The initial temperature of 80° C. was held for 2 minute and increased to 300° C. at 10° C./minute. […] 3-Hydroxy-1,5-pentanedioic-2,2,3,4,4-d5 acid was used as the internal standard in SIM mode for quantitation of 2-hydroxyglutaric acid. Quantitation was carried out by monitoring the ions at m/z 347 (glutamine and αKG), 348 (glutamate), 349 (2-hydroxyglutaric acid), and 354 (3-hydroxy-1,5-pentanedioic-2,2,3,4,4-d5).

For assay [3], the system named is NHA cells expressing IDH1 R132H or wild type IDH1. The experiment in a line: Histone lysine methylation by Western blot in immortalized NHA cells. Format: cell-based, human. The protocol: Histone extraction and Western blot analysis. For extraction of total cellular protein, cells were lysed in RIPA buffer (150 mM NaCl, 50 mM Tris, 5 mM EDTA, 1% NP-40, 0.1% SDS, 0.5% sodium deoxycholate, pH 7.4), supplemented with protease inhibitor cocktail (Roche), sodium orthovanadate (1 mM), and PMSF (1 mM). Whole-cell lysates were normalized for protein content by BCA assay (Pierce). Histone extraction was performed using an EpiQuik™ Total Histone Extraction Kit (Epigentek) and extracted protein was quantified using a Bradford assay.
Proteins were resolved by SDS-PAGE, transferred to a PVDF membrane and probed with the following antibodies: IDH1 (Origene, TA500610), 6× His (Abcam, ab1187), H3K9Me2 (Cell Signaling, 4658p), H3K9Me3 (Abcam, ab8898), H3K27Me3 (Millipore, 07-449), H3K79Me2 (Cell Signaling, 9757p), total H3 (Cell Signaling, 4499p), and Actin. Secondary anti-mouse and anti-rabbit horseradish peroxidase-conjugated IgG antibodies were used for detection.
Background: Immunoblotting shows a protein as a band on a membrane.

Molecules are shown by their SMILES.

In the case of `CCCOc1ccccc1-c1nc2nn[nH]c2c(=O)[nH]1` [Zaprinast, 5-(2-propoxyphenyl)-1H-[1,2,3]triazolo[4,5-d]pyrimidin-7(4H)-one], the “Sensitivity to oxidative damage after adding back glutamate” value in assay [1] (Zaprinast with 5 mM glutamate) is “nearly completely abolished the increased sensitivity to oxidative damage”. Moreover, in assay [1] (cells pretreated with Zaprinast), the “Susceptibility to hydrogen peroxide stress versus vehicle” value is “significantly more susceptible”. Besides, the “Intracellular 2HG by GC-MS” value in assay [2] is “modulated in a concentration-dependent manner”. Besides, the “Pattern of 2HG and upstream metabolite changes” value in assay [2] (compared with HT1080) was “the same pattern of metabolite level changes”. Also, the “Methylation levels of H3K9Me2 or H3K9Me3” value in assay [3] (IDH1 WT expressing astrocytes, 300 μM) is “did not produced such a marked reduction”. In addition, the “Histone methylation marks (H3K9Me2, H3K9Me3, H3K27Me3, H3K79Me2)” value in assay [3] (astrocytes expressing R132H IDH1) is “marked reduction toward baseline methylation levels”.
